{"source": "patent US20260272869A1", "about": "“ORAL COMPOSITION COMPRISING L-THEANINE” (NICOVENTURES TRADING LIMITED, priority 2023, published 2026)", "data": [{"tested_on": "blood-brain barrier", "test": "Enhancement of blood-brain barrier permeation of P-glycoprotein substrate compounds by piperine", "conditions": "P-glycoprotein substrate compound combined with piperine", "values": [{"compound": "CC(/C=C/C=C(\\C)C(=O)O)=C\\C=C\\C=C(C)\\C=C\\C=C(/C)C(=O)O", "note": "[crocetin]", "Permeation across the blood-brain barrier / bioavailability when combined with piperine": "enhanced"}, {"compound": "CC(/C=C/C=C(\\C)C(=O)O[C@@H]1O[C@H](CO[C@@H]2O[C@H](CO)[C@@H](O)[C@H](O)[C@H]2O)[C@@H](O)[C@H](O)[C@H]1O)=C\\C=C\\C=C(C)\\C=C\\C=C(/C)C(=O)O[C@@H]1O[C@H](CO[C@@H]2O[C@H](CO)[C@@H](O)[C@H](O)[C@H]2O)[C@@H](O)[C@H](O)[C@H]1O", "note": "[crocin]", "Permeation across the blood-brain barrier / bioavailability when combined with piperine": "enhanced"}, {"compound": "CC1=C(C)C(=O)O[C@@H]([C@](C)(O)[C@H]2CC[C@H]3[C@@H]4[C@@H]5O[C@@H]5[C@@]5(O)CC=CC(=O)[C@]5(C)[C@H]4CC[C@]23C)C1", "note": "[withanolide A]", "Permeation across the blood-brain barrier / bioavailability when combined with piperine": "enhanced"}, {"compound": "CC1=C(C)C(=O)O[C@@H]([C@@H](C)[C@@]2(O)CC[C@H]3[C@@H]4[C@@H]5O[C@@H]5[C@@]5(O)CC=CC(=O)[C@]5(C)[C@H]4CC[C@@]32C)C1", "note": "[withanone]", "Permeation across the blood-brain barrier / bioavailability when combined with piperine": "enhanced"}]}]}
